Experiments:
[1] = biological target: hTDO2 in human glioblastoma A172 cells (Homo sapiens (Human), UniProt P48775); assay: Cellular assay for TDO2 activity determination in A172 cells; format: cell-based; details: overnight incubation, kynurenine absorbance at 480 nm
How it was run: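 Glioblastoma A172 cells with endogenous hTDO2, 1.25×10^4 cells/well, incubated overnight at 37° C. with ten serial compound concentrations in IMDM with 2% FBS. Supernatant kynurenine, after TCA precipitation and 4-(dimethylamino)-benzaldehyde reaction, read at 480 nm against kynurenine standard curve; data curve-fitted.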

[2] = biological target: TDO2 (Mus musculus (Mouse), UniProt P48776); assay: Pharmacodynamic assay for TDO2 in vivo activity: increase of blood tryptophan levels in mice; details: female BALB/c mice, plasma after two hours
Experimental: The compounds of the present invention increase the amount of Tryptophan in mouse blood. Briefly, female BALB/c mice (7-8 weeks old) were treated with either a suspension of one of the compounds of the present invention in 0.5% hydroxypropyl methyl cellulose (HPMC) K4M (4000 mPa·s (cPs), Methocell™, Dow chemical)/0.25% Tween® 20 (Sigma Aldrich) at different doses (30, 60 and 100 mg/kg), or with a vehicle control (0.5% HPMC K4M/0.25% Tween 20), by the oral route by gavage (dosing volume 5 mL/kg, 10 mice per group). After two hours, blood was harvested, plasma was prepared and the amount of Tryptophan present was determined by LC-MS-MS (HPLC column Unison UK-Phenyl, 75×4.6, 3 μm, flow rate 0.8 mL/min, 8 minutes gradient from 95% water+0.1% formic acid/5% Acetonitrile+0.1% formic acid to 5% water+0.1% formic acid/95% Acetonitrile+0.1% formic acid, retention time 2.4 min; API4000 MS-MS system from AB Sciex, ESI+ mode, parent ion 205.1, daughter ion 146.1).

[3] = biological target: human recombinant TDO2 enzyme (Homo sapiens (Human), UniProt P48775); assay: Assay for TDO2 enzymatic activity determination; format: biochemical; details: human recombinant TDO2, L-Trp 1 mM, kynurenine absorbance at 480 nm
Experimental: The compounds of formula I, its subformulae, and enantiomers, salts and solvates thereof, are useful to inhibit the enzymatic activity of human TDO2. To measure the TDO2 activity, the procedure described in Dolusic et al. J. Med. Chem.; 2011, 54, […] was adapted: the reaction mixture contained (final concentrations) potassium phosphate buffer (50 mM, pH 7.5), ascorbic acid ([…]), methylene blue (0.125 μM), catalase (40 units/mL, from bovine liver, Sigma), and human recombinant TDO2 enzyme (prepared as described in Dolusic et al. J. Med. Chem.; 2011, 54, 5320-5334; 0.9 μg) without or with the compounds of the present invention at the indicated concentrations (total volume 112.5 μL). The reaction was initiated by the addition of 37.5 μL of L-Trp (final concentration 1 mM) at room temperature. The reaction was conducted at room temperature during one hour and stopped by the addition of 30 μL of 30% (w/v) trichloroacetic acid. To convert N-formylkynurenine into kynurenine, the reaction mixture was incubated at 65° C. for 30 min. […] Kynurenine concentrations were determined by measuring the absorbance at 480 nm. A standard curve was made with pure kynurenine. The TDO activity was measured as described above using ten serial concentrations of the compounds of the present invention. Data were fitted using the Prism™ software (GraphPad Software, Inc.) using standard parameters.

Sequence of TDO2 (P48776 whole entry): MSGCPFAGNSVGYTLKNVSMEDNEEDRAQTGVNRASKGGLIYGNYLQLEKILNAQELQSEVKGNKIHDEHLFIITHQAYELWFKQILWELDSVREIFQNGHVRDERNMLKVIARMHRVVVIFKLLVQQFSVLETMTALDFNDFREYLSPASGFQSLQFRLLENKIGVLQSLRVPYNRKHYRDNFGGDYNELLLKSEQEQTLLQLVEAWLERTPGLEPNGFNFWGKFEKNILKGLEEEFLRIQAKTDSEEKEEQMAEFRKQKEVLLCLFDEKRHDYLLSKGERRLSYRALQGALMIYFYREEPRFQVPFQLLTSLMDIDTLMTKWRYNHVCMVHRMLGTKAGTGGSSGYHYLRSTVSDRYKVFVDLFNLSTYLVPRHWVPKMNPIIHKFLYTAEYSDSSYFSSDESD
Sequence of hTDO2 in human glioblastoma A172 cells (P48775 whole entry): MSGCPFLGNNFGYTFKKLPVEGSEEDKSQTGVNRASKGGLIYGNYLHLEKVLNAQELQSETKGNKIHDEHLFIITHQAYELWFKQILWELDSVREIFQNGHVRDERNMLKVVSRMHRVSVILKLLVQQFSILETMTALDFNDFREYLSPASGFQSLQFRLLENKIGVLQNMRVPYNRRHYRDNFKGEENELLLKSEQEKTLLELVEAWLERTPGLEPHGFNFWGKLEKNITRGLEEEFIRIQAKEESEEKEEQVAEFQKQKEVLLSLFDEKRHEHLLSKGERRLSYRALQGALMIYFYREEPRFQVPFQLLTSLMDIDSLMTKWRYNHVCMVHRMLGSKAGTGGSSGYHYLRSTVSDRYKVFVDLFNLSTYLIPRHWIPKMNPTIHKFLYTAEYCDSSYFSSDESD
Sequence of human recombinant TDO2 enzyme (P48775 whole entry): as above

IC50 [1] [nM]	Trp in plasma (average ± standard error of the mean) ([2]; 30 mg/kg oral gavage) [ng/mL]	Trp in plasma (average ± standard error of the mean) ([2]; 60 mg/kg oral gavage) [ng/mL]	Trp in plasma (average ± standard error of the mean) ([2]; 100 mg/kg oral gavage) [ng/mL]	IC50 [3] [nM]	increase of circulating Tryptophan compared to vehicle-treated controls ([2]; 30 mg/kg oral gavage) [%]	increase of circulating Tryptophan compared to vehicle-treated controls ([2]; 60 mg/kg oral gavage) [%]	increase of circulating Tryptophan compared to vehicle-treated controls ([2]; 100 mg/kg oral gavage) [%]	SMILES
180	32700	35300	34000	–	–	–	–	CC(=O)NCCNS(=O)(=O)c1ccc(-c2c[nH]c3cc(F)ccc23)cc1 [Example 16, N-(2-(4-(6-fluoro-1H-indol-3-yl)phenylsulfonamido)-ethyl)acetamide]
190	–	–	–	1100	67	81	74	O=S(=O)(c1ccc(-c2c[nH]c3cc(F)ccc23)cc1)N1CCN[C@H](CO)C1 [Example 18, (S)-(4-((4-(6-fluoro-1H-indol-3-yl)phenyl)sulfonyl)piperazin-2-yl)methanol]

— patent US10544095B2 (Pfizer Inc., priority 2015, dated 2020)
